{"source": "patent US20230270692A1", "about": "“COMPOUNDS FOR CHRONIC DISORDERS” (Pillai Universal LLC, priority 2020, published 2023)", "key": {"[1]": {"system": "Class I HDAC (HDAC1, HDAC2, HDAC3, HDAC8)", "assay": "Class I HDAC expression/inhibition by western blotting in PANC cells", "type": "cell-based, Human", "description": "Class I HDAC expression during pancreatic tumorigenesis was next examined. Briefly different concentration of Compound I were added and incubated for 24 h. […] Inhibition of Class I HDACs is associated with the upregulation of histone H3 acetylation and p21 mRNA and protein expression which have associated with the anti-proliferative activity. It has also been reported that HDAC6 functions as a α-tubulin deacetylase, modulating tubulin stability. Because α-tubulin and histone H3 are mutual downstream targets of HDACs, the relationship between protein expression and function of molecules was further examined. The effects of Compound I on histone H3 acetylation in PANC cells using western blot analysis was studied."}, "[2]": {"assay": "Pharmacokinetics and tissue distribution in nude mouse", "type": "in vivo", "description": "The pharmacokinetics and toxicity of Compound I was studied in vivo in a nude mouse model.\nTissue-to-plasma ratios were taken of Compound I in animals at 1, 2, 4, 24 h after administration. At 60 min, the highest levels of Compound I were found in the lungs, brain, stomach, liver, mammary gland, and small intestine, all of which are highly perfused organs followed by spleen and heart. Up to 72 h, Compound I was detected in most organs, but not in the femur and kidney. The ratios in most organs continued to increase up to 4 h. […] There was no change in body weight monitored for a 7-day period after drug administrations.\nAs explained above, a pharmacokinetic study investigated the concentrations of Compound I at different time intervals after either oral administration or intravenous injection. […] In the gastrointestinal tract, a significant amount of Compound I accumulated in the stomach, implying that Compound I may be absorbed through stomach tissue and distributed throughout the body. […] Collectively, our current findings will provide a more complete understanding of the biological actions of Compound I in vivo."}, "[3]": {"system": "panel of human normal cell lines", "assay": "MTT cytotoxicity of anticancer agents on normal cell lines, alone and with Compound I", "settings": "combination treatment", "description": "The cytotoxicity of anticancer agents was studied using a panel of human normal cell lines alone and with the combination of Compound I of the present invention. The cytotoxicity effect was determined by MTT assay. The following cell lines were used: Human epidermal keratinocytes cells (HaCaT), Human dermal fibroblast (HDF), Human bone marrow mesenchymal stem cells (HBMSCs), Human normal hepatocytes cells (THLE2), Human cardiac cells (AC-16), Human intestinal epithelial cells (HIEC-6), Human neuronal cells (SHSY-5Y), Human vascular Endothelial cells (HuVECs), Human lung epithelial cells (Calu-3), Human lung fibroblast (MRC 5).\nNext, the cells were treated with anticancer agents in combination with Compound I of the present invention."}, "lung cancer stem cells": {"system": "lung cancer stem cells", "assay": "Targeting lung cancer stem cells", "source_text": "Compound I is orally bioavailable, multi-tyrosine-kinase inhibitor with 120 target proteins that induces apoptosis and suppresses the invasiveness of lung cancer stem cells with no toxicity to normal cells. There were no signs of discomfort or any cardiovascular or respiratory disorders observed in animals after the administration throughout the study period."}, "[4]": {"settings": "treatment group compared to control group"}}}
{"compound": "COc1cc(/C=C/C(=O)/C=C/C=C/c2cc(OC)c(O)c(OC)c2)cc(OC)c1", "note": "[Compound I]", "values": [{"measurement": "protein expression of Class I HDAC", "setting": "[1]; 24 h, western blotting, vs control p<0.05", "result": "decreased in a dose-dependent manner"}, {"measurement": "inhibition of HDAC1, HDAC2, HDAC3 and HDAC8", "setting": "[1]; PANC cells", "result": "significantly inhibited"}, {"measurement": "Toxicity", "setting": "[2]; 10 mg/kg IV", "result": "No toxicity was observed"}, {"measurement": "tissue-to plasma ratio in the hippocampus and brain", "setting": "[2]; 1, 2, and 24 h after dosing", "result": "increased significantly and continuously"}, {"measurement": "body weight", "setting": "[2]; 7-day period after administration", "result": "no change"}, {"measurement": "tissue distribution", "setting": "[2]; intravenous administration", "result": "widely distributed in several tissues"}, {"measurement": "absorbed or distributed to the vital organs", "setting": "[2]; mouse, in vivo", "result": "approximately 98%"}, {"measurement": "excreted in either urine or feces", "setting": "[2]; mouse, in vivo", "result": "less than 2%"}, {"measurement": "time Compound I was detected in most organs", "setting": "[2]; not in the femur and kidney", "result": "Up to 72 h"}, {"measurement": "signs of discomfort, cardiovascular or respiratory disorders", "setting": "[2]; throughout the study period", "result": "No signs of discomfort or any cardiovascular or respiratory disorders were observed"}, {"measurement": "increase in the area under the curve (AUC)", "setting": "[2]; [4]", "result": 28, "unit": "fold"}, {"measurement": "increase in the maximum plasma concentration (Cmax)", "setting": "[2]; [4]", "result": 29, "unit": "fold"}, {"measurement": "effect on toxicity induced by anticancer agents in normal cells", "setting": "[3]", "result": "reduces the toxic effect induced by anticancer agents"}, {"measurement": "effect on lung cancer stem cells", "setting": "lung cancer stem cells", "result": "induces apoptosis and inhibits metastasis without harming the normal cells"}]}
